pKi: −log10 of the molar value. Structures can show the parent of a compound that is named as a salt.

Experimental findings from patent US6608083B1, “Quinoline derivatives(2)” (SmithKline Beecham Farmaceutici S.p.A, priority 1994, dated 2003) are described below.

One series concerns the target T1, NK3 receptor (Cavia porcellus, UniProt P30098).
T1 sequence (P30098 1-440): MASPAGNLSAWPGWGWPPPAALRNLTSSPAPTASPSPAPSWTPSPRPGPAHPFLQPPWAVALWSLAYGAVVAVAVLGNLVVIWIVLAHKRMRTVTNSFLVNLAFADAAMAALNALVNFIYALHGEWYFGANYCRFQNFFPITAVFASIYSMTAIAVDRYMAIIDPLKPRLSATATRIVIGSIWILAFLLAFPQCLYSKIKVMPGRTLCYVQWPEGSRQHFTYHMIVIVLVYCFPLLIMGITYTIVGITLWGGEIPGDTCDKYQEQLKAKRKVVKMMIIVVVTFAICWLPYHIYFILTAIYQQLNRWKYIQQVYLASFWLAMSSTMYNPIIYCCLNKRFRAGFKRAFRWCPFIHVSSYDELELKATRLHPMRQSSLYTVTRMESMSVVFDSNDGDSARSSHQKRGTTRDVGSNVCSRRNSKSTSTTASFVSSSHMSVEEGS
The series is described as follows: Binding: displacement of [3H]-Senktide / [125I]-[Me-Phe7]-NKB, guinea-pig cortex membranes.

Protocol for NK3 receptor: The activity of the compounds of the present invention, as NK3 ligands, is determined by their ability to inhibit the binding of the radiolabelled NK3 ligands, [^125I]-[Me-Phe^7]-NKB or [^3H]-Senktide, to guinea-pig and human NK3 receptors (Renzetti et al, 1991, Neuropeptide, 18, 104-114; Buell et al, 1992, FEBS, 299(1), 90-95; Chung et al, 1994, Biochem. Biophys. Res. Commun., 198(3), 967-972). […] Binding assays provide for each compound tested a mean IC50 value of 2-5 separate experiments performed in duplicate or triplicate. […] The NK3-antagonist activity of the compounds of the present invention is determined by their ability to inhibit senktide-induced contraction of the guinea-pig ileum (Maggi et al, 1990, Br. J. PharmacoL, 101, 996-1000) and rabbit isolated iris sphincter muscle (Hall et al., 1991, Eur. J. PharmacoL, 199, 9-14) and human NK3 receptors-mediated Ca^++ mobilization (Mochizuki et al, 1994, J. Bio. Chem., 269, 9651-9658). Guinea-pig and rabbit in-vitro functional assays provide for each compound tested a mean KB value of 3-8 separate experiments, where KB is the concentration of the individual compound required to produce a 2-fold rightward shift in the concentration-response curve of senktide. Human receptor functional assay allows the determination of the concentration of the individual compound required to reduce by 50% (IC50 values) the Ca^++ mobilization induced by the agonist NKB.

For the compound `COC(=O)[C@H](NC(=O)c1cc(-c2ccccc2)nc2ccccc12)c1ccc(O)cc1.Cl`, the melting point was 140 °C (dec.).
`O=C(NC(C(=O)O)c1ccccc1)c1cc(-c2ccccc2)nc2ccccc12` (stereo not drawn) (as salt: HCl) [Example 92] yielded a melting point of 203 to 205 °C.
For `COC(=O)C(NC(=O)c1cc(-c2ccccc2)nc2ccccc12)C1=CCC=CC1` (stereo not drawn) [Example 16], the melting point was in the range of 120 to 122 °C.
With `C[C@H](O)[C@H](NC(=O)c1cc(-c2ccccc2)nc2ccccc12)c1ccccc1` [Example 17, (R,S)-N-[α-(1-hydroxyethyl)benzyl]-2-phenylquinoline-4-carboxamide], the melting point is 204 to 205 °C.
For `CCC(NC(=O)c1c(OC)c(-c2ccccc2)nc2ccccc12)c1ccccc1` (stereo not drawn) [Example 18], the melting point was 163 to 165 °C.
Same read-out and setting: the value for `CCCCc1c(-c2ccccc2)nc2ccccc2c1C(=O)NC(CC)c1ccccc1` (stereo not drawn) [Example 19] was 147 to 150 °C.
Turning to `COC(=O)C(NC(=O)c1c2c(nc3ccccc13)-c1ccccc1CCC2)c1ccccc1` (stereo not drawn) [Example 20], the melting point was 186 to 188 °C.
Take `CCC(NC(=O)c1c(C)c(-c2ccccc2)nc2ccccc12)c1ccccc1` (stereo not drawn) [Example 22]: the pKi on NK3 receptor is 8.25.
`COC(=O)C(NC(=O)c1cc(-c2ccccc2OC)nc2ccccc12)c1ccccc1` (stereo not drawn) [Example 24] gave a melting point of 124 to 125 °C.
As to `CCC(NC(=O)c1c(-c2ccccc2)c(-c2ccccc2)nc2ccccc12)c1ccccc1` (stereo not drawn) [Example 25], the melting point lay in the range of 198 to 200 °C.
Compound `COC(=O)C(NC(=O)c1cc(-c2ccccc2F)nc2ccccc12)c1ccccc1` (stereo not drawn) [Example 26] yielded a melting point of 146 to 147 °C.
The same measure, in the same setting: the value for `CCC(NC(=O)c1cc(-c2ccccc2)nc2ccccc12)c1ccc(Cl)c(Cl)c1` (stereo not drawn) [Example 27] was 193 to 194 °C.
In the case of `O=C(NC(CO)c1ccccc1)c1cc(-c2ccccc2)nc2ccccc12` (stereo not drawn) [Example 28], the melting point lay within 117 to 119 °C.
Consider `COC(=O)C(NC(=O)c1c(C)c(-c2ccccc2)nc2ccccc12)c1ccccc1` (stereo not drawn) [Example 30], for which the melting point lay in the range of 180 to 181 °C.
As to `COC(=O)C(NC(=O)c1cc(-c2ccccc2)nc2cc(Cl)ccc12)c1ccccc1` (stereo not drawn) [Example 32], the melting point was 180 to 183 °C.
On the same count and under the same terms, in the case of `COC(=O)C(NC(=O)c1cc(-c2ccccc2)nc2ccc(C)cc12)c1ccccc1` (stereo not drawn) [Example 33] it was 179 to 181 °C; in that of `COCC(NC(=O)c1cc(-c2ccccc2)nc2ccccc12)c1ccccc1` (stereo not drawn) [Example 34], 144 to 145 °C; in that of `COC(=O)C(NC(=O)c1cc(-c2ccccc2)nc2ccc(Cl)cc12)c1ccccc1` (stereo not drawn) [Example 35], 197 to 199 °C.
On the same count and under the same terms, the value for `CCc1c(-c2ccccc2)nc2ccccc2c1C(=O)NC(C(=O)OC)c1ccccc1` (stereo not drawn) [Example 36] was 156 to 157 °C.
The same measure, in the same setting: in the case of `CCCC(NC(=O)c1cc(-c2ccccc2)nc2ccccc12)c1ccccc1` (stereo not drawn) [Example 37] it was 149 to 150 °C; in that of `CCc1c(-c2ccccc2)nc2ccccc2c1C(=O)NC(CC)c1ccccc1` (stereo not drawn) [Example 38], 158 to 159 °C.
Regarding `CCC(NC(=O)c1c(N2C(=O)c3ccccc3C2=O)c(-c2ccccc2)nc2ccccc12)c1ccccc1` (stereo not drawn) [Example 39], the melting point lay in the range of 201 to 202 °C.
Compound `CCCc1c(-c2ccccc2)nc2ccccc2c1C(=O)NC(CC)c1ccccc1` (stereo not drawn) [Example 40] showed a melting point of 149 to 151 °C.
Compound `CCC(NC(=O)c1c(C)c(-c2ccc(Br)cc2)nc2ccc(Br)cc12)c1ccccc1` (stereo not drawn) [Example 41] came in with a melting point of 230 to 231 °C.
Regarding `CCC(NC(=O)c1c(C)c(-c2ccccc2)nc2ccc(Br)cc12)c1ccccc1` (stereo not drawn) [Example 42], the melting point lay in the range of 179 to 180 °C.
Regarding `COC(=O)C(NC(=O)c1cc(-c2ccccc2)nc2ccc(OC)cc12)c1ccccc1` (stereo not drawn) [Example 43], the melting point was in the range of 209 to 211 °C.
On the same count and under the same terms, in the case of `COC(=O)C(NC(=O)c1cc(-c2cc3ccccc3o2)nc2ccccc12)c1ccccc1` (stereo not drawn) [Example 44] it was 240 to 241 °C.
In the case of `O=C(NC(Cc1ccccc1)c1ccccc1)c1cc(-c2ccccc2)nc2ccccc12` (stereo not drawn) [Example 45], the melting point was 194 to 196 °C.
The compound `O=C(NC(c1ccccc1)C(F)(F)F)c1cc(-c2ccccc2)nc2ccccc12` (stereo not drawn) [Example 46] gave a melting point of 180 to 181 °C.
Turning to `CCC(NC(=O)c1cc(-c2ccccc2)nc2ccccc12)c1ccc(Cl)cc1` (stereo not drawn) [Example 49], the melting point lay in the range of 177 to 178 °C.
Turning to `COC(=O)C(c1ccccc1)N(C)C(=O)c1cc(-c2ccccc2)nc2ccccc12` (stereo not drawn) [Example 50], the melting point is 128 to 129 °C.
Still for that read-out and setting: the value for `COC(=O)C(NC(=O)c1cc(-c2ccsc2)nc2ccccc12)c1ccccc1` (stereo not drawn) [Example 51] was 169 to 171 °C; that for `COC(=O)C(NC(=O)c1c2c(nc3ccccc13)-c1ccccc1CC2)c1ccccc1` (stereo not drawn) [Example 52] was 217 to 219 °C; that for `COC(=O)C(NC(=O)c1cc(-c2ccc[nH]2)nc2ccccc12)c1ccccc1` (stereo not drawn) [Example 53] was 181 to 182 °C.
With `COC(=O)C(NC(=O)c1cc(-c2nccs2)nc2ccccc12)c1ccccc1` (stereo not drawn) [Example 54], the melting point fell in the range of 209 to 211 °C.
The same measure, in the same setting: the value for `CCCCC(NC(=O)c1cc(-c2ccccc2)nc2ccccc12)c1ccccc1` (stereo not drawn) [Example 56] was 155 to 156 °C.
As for `COC(=O)C(NC(=O)c1cc(-c2ccc(C)cc2)nc2ccccc12)c1ccccc1` (stereo not drawn) [Example 57], the melting point lay in the range of 172 to 174 °C.
On the same count and under the same terms, in the case of `COC(=O)C(NC(=O)c1cc(-c2ccccc2C)nc2ccccc12)c1ccccc1` (stereo not drawn) [Example 59] it was 180 to 182 °C; in that of `COC(=O)C(NC(=O)c1cc(-c2ccc(OC)cc2)nc2ccccc12)c1ccccc1` (stereo not drawn) [Example 60], 182 to 183 °C; in that of `O=C(NC1(c2ccccc2)CCCC1)c1cc(-c2ccccc2)nc2ccccc12` [Example 61], 164 to 165 °C.
In turn, `COC(=O)C(NC(=O)c1cc(-c2ccc(O)cc2)nc2ccccc12)c1ccccc1` (stereo not drawn) [Example 62] registered a melting point of 226 to 227 °C.
In the case of `COC(=O)C(NC(=O)c1cc(-c2ccc3c(c2)OCO3)nc2ccccc12)c1ccccc1` (stereo not drawn) [Example 63], the melting point was in the range of 186 to 187 °C.
Consider `CC(C)(NC(=O)c1cc(-c2ccccc2)nc2ccccc12)c1ccccc1` [Example 64], for which the melting point fell in the range of 173 to 174 °C.
In the case of `CCC(NC(=O)c1cc(-c2ccccc2)nc2ccccc12)c1ccc(C)cc1` (stereo not drawn) [Example 65], the melting point is 160 to 162 °C.
As to `COC(=O)C(NC(=O)c1cc(-c2cc[nH]c2)nc2ccccc12)c1ccccc1` (stereo not drawn) [Example 66], the melting point lay within 202 to 204 °C.
The compound `COC(=O)C(NC(=O)c1cc(-c2ccc(Cl)c(Cl)c2)nc2ccccc12)c1ccccc1` (stereo not drawn) [Example 67] gave a melting point of 164 to 165 °C.
In turn, `NCC(NC(=O)c1cc(-c2ccccc2)nc2ccccc12)c1ccccc1` (stereo not drawn) [Example 68] returned a melting point of 139 to 141 °C.
`CCC(NC(=O)c1c(Cl)c(-c2ccccc2)nc2ccccc12)c1ccccc1` (stereo not drawn) [Example 70] yielded a melting point of 137 to 139 °C.
Still for that read-out and setting: in the case of `CCC(NC(=O)c1c(Br)c(-c2ccccc2)nc2ccccc12)c1ccccc1` (stereo not drawn) [Example 71] it was 119 to 122 °C; in that of `CC(C)C(NC(=O)c1cc(-c2ccccc2)nc2ccccc12)c1ccccc1` (stereo not drawn) [Example 72], 165 to 166 °C.
Same read-out and setting: the value for `COC(=O)C(NC(=O)c1cc(-c2ccccc2)nc2ccc(F)cc12)c1ccccc1` (stereo not drawn) [Example 75] was 174 to 176 °C.
Still for that read-out and setting: the value for `COC(=O)C(NC(=O)c1cc(C2CCCCC2)nc2ccccc12)c1ccccc1` (stereo not drawn) [Example 76] was 151 to 153 °C.
For `COC(=O)C(NC(=O)c1cc(-c2cccc(Cl)c2)nc2ccccc12)c1ccccc1` (stereo not drawn) [Example 77], the melting point is 161 to 163 °C.
The compound `COC(=O)C(NC(=O)c1cc(-c2ccccc2Cl)nc2ccccc12)c1ccccc1` (stereo not drawn) [Example 78] gave a melting point of 175 to 178 °C.
The same measure, in the same setting: in the case of `COC(=O)C(NC(=O)c1cc(-c2ccccc2)nc2c(OC(C)=O)cccc12)c1ccccc1` (stereo not drawn) [Example 80] it was 193 to 194 °C; in that of `COC(=O)C(NC(=O)c1cc(-c2ccccc2)nc2c(O)cccc12)c1ccccc1` (stereo not drawn) [Example 81], 178 to 180 °C.
As to `COC(=O)C(NC(=O)c1cc(-c2ccc(Cl)cc2Cl)nc2ccccc12)c1ccccc1` (stereo not drawn) [Example 82], the melting point is 142 to 143 °C.
In turn, `O=C(NC(c1ccccc1)c1ccccc1)c1cc(-c2ccccc2)nc2ccccc12` [Example 84] registered a melting point of 182 to 184 °C.
Still for that read-out and setting: in the case of `COC(=O)C(NC(=O)c1c(O)c(-c2ccccc2)nc2ccccc12)c1ccccc1` (stereo not drawn) [Example 87] it was 125 to 127 °C.
`CN(C)CC(NC(=O)c1cc(-c2ccccc2)nc2ccccc12)c1ccccc1` (stereo not drawn) [Example 88]: the melting point lay in the range of 133 to 135 °C.
The same measure, in the same setting: in the case of `CN(C)C(=O)C(NC(=O)c1cc(-c2ccccc2)nc2ccccc12)c1ccccc1` (stereo not drawn) [Example 89] it was 219 to 221 °C; in that of `NC(=O)C(NC(=O)c1cc(-c2ccccc2)nc2ccccc12)c1ccccc1` (stereo not drawn) [Example 90], 237 to 238 °C.
`O=C(NC(C(=O)N1CCCC1)c1ccccc1)c1cc(-c2ccccc2)nc2ccccc12` (stereo not drawn) [Example 91] returned a melting point of 199 to 200 °C.

By melting point is commonly meant the temperature, or range, at which the solid turns liquid. Usually pKi stands for the Ki on a negative log10 scale, so that one unit is a factor of ten. The low end stands for a high Ki, the high end for a low Ki.
